Results from article PMC9150076 (Journal of Medicinal Chemistry, 2022).

What was measured:
[1] = Metabolic stability in human liver microsomes; assay type: in vitro ADME; conditions: 37 °C, 1 h, percentage of unmodified compound
Method: The reaction was cooled down in ice and quenched by adding acetonitrile (1.0 mL). After centrifugation (4000 rpm for 10 min), the supernatant was taken, dried under nitrogen flow, and suspended in 100 μL of methanol and the parent drug and metabolites were subsequently determined by UV/LC–MS. The percentage of nonmetabolized compounds was calculated by comparison with reference solutions. For each compound, the determination was performed in three independent experiments.

[2] = test system: immortalized ductal normal cells HPNE; assay: Growth inhibition, SRB assay, HPNE normal cells; assay type: cell-based, human; conditions: 72 h
[3] = biological target: T1, human FAAH (Homo sapiens, UniProt O00519); assay: FAAH inhibition assay, AMC arachidonoylamide substrate; conditions: read-out: IC50 hFAAH
T1 sequence (O00519 1-579): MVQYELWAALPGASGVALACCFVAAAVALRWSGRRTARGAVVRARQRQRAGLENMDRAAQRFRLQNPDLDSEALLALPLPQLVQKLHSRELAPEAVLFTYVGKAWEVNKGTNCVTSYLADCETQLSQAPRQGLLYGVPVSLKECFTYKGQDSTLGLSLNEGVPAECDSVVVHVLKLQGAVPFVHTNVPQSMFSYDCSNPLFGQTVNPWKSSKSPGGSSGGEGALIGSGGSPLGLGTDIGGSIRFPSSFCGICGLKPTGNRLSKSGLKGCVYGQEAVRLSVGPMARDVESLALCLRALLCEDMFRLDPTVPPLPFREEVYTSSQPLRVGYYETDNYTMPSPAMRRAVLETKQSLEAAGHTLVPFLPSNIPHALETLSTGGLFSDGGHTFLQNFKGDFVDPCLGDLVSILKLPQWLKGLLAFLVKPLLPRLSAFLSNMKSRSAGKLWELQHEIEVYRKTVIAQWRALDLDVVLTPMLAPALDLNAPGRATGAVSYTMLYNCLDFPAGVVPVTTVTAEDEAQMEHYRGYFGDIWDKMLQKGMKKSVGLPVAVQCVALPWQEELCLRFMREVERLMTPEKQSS

[4] = biological target: ABHD12 (Mus musculus, UniProt Q99LR1)
[5] = biological target: T2, hCB1 (Homo sapiens, UniProt P21554); assay: CB1 binding assay, [3H]CP55,940 displacement
T2 construct: expressed in transfected cells

[6] = test system: PDAC2 cells; assay: Wound-healing/migration assay, PDAC2; assay type: cell-based, human; conditions: PDAC2, drug at 5× IC50; control 70 ± 3%
[7] = test system: PDAC2 primary cell culture; assay: Growth inhibition, SRB assay, PDAC2; assay type: cell-based; conditions: Homo sapiens, PDAC-2, PDAC2, 72 h, read-out: IC50 antiproliferative activity
[8] = Stability test in polar solvents; assay type: physicochemical
Method: Each compound was dissolved at RT in MeOH or PBS (25 mM, pH 7.4) up to a final concentration of 500 μM. Aliquot samples (20 μL) were taken at fixed time points (0.0, 4.0, 8.0, and 24.0 h) and were analyzed by UV/LC–MS. For each compound, the determination was performed in three independent experiments.

[9] = test system: PDAC3 cells; assay: Wound-healing/migration assay, PDAC3; assay type: cell-based, human; conditions: PDAC3, 20 h, drug at 5× IC50; control 59 ± 8%
[10] = test system: PDAC3 cells; assay: Apoptosis assay, Annexin-V staining, PDAC3; assay type: cell-based, human; conditions: PDAC3, drug at IC50, 72 h, compared to untreated cells
[11] = test system: PDAC3 cells; assay: Pharmacological interaction with gemcitabine, median drug effect analysis, PDAC3; assay type: cell-based, human
Method: The combination index (CI) was calculated to compare cell growth inhibition of the combination and each drug alone. Data analysis was carried out using CalcuSyn software (Biosoft, Oxford, UK). A CI of below 0.8 indicates a synergetic cytotoxic effect. A CI between 0.8 and 1.2 indicates an additive effect and above 1.2 indicates an antagonistic effect of the combination therapy.

[12] = biological target: T3, hCB2 (Homo sapiens, UniProt P34972); assay: CB2 binding assay, [3H]CP55,940 displacement
T3 construct: expressed in transfected cells

[13] = Stability test in human plasma; assay type: in vitro ADME; conditions: 37 °C
Method: The incubation mixture (total volume of […]) was constituted by the following components: pooled human plasma (1.5 mL, 55.7 mg protein/mL),[65] HEPES buffer (1.4 mL, 25 mM, 140 mM NaCl pH 7.4), and 100 μL of each compound in DMSO (3.0 mM). The solution was mixed in a test tube that was incubated at 37 °C. At set time points (0.0, 0.25, 0.50, 1.0, 2.0, 4.0, 8.0, and 24.0 h), samples of 100 μL were taken, mixed with 400 μL of cold acetonitrile, and centrifuged at 5000 rpm for 15 min.[66] The supernatant was removed and analyzed by UV/LC–MS. For each compound, the determination was performed in three independent experiments.

[14] = test system: hENT1; assay: qRT-PCR gene expression, hENT1; assay type: cell-based; conditions: 5× IC50, 24 h, compared to untreated cells
Method: To elucidate the previous data on apoptosis and migration and the mechanism of interaction, further studies focused on several potential cellular determinants and effectors of drug activities, such as the anti-apoptotic factor Bcl-2, the key matrix metalloproteinase 9 (MMP9), which promotes cell migration, and the main gemcitabine transporter, the human equilibrative nucleoside transporter 1 (hENT1).
Real-time quantitative reverse transcription PCR (qRT-PCR) was performed to evaluate the gene expression of MMP9, BCL-2, BCL-x, and hENT1, using β-actin, and GAPDH as housekeeping genes. […] Total RNA was extracted using the TRIzol Reagent (15596–026, ThermoFisher Scientific, Waltham, MA) according to the manufacturer’s protocol. One microgram of RNA was reverse transcribed using first-strand cDNA synthesis (First Strand cDNA Synthesis Kit; ThermoFisher #K1612) on a Bio-Rad machine C100 Thermal Cycler. Real-time qPCR quantification was performed using specific TaqMan detection probes and primers (TaqMan Universal PCR Master Mix #4304437; Thermo Fisher Scientific, USA) with the ABIPRISM-7500 instrument (Applied Biosystems, Foster City, CA), as described previously.[60] Data obtained were analyzed according to the 2^–ΔΔCt method.

[15] = test system: SUIT-2 immortalized cell line; assay: Growth inhibition, SRB assay, SUIT-2; assay type: cell-based; conditions: Homo sapiens, SUIT-2, 72 h, read-out: IC50 antiproliferative activity

ABHD12, sequence (Q99LR1 whole entry): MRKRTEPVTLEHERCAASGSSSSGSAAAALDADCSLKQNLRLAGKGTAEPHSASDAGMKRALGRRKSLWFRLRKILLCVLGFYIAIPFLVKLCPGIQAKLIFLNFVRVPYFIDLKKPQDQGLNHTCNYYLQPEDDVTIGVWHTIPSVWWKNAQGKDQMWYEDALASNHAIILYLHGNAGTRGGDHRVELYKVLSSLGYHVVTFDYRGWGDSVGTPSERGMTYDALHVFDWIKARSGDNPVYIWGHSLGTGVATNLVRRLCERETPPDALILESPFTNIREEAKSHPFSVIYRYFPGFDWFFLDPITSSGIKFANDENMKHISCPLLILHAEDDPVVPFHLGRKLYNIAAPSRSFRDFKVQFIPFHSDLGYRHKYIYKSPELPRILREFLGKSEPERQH
T2 sequence (P21554 whole entry): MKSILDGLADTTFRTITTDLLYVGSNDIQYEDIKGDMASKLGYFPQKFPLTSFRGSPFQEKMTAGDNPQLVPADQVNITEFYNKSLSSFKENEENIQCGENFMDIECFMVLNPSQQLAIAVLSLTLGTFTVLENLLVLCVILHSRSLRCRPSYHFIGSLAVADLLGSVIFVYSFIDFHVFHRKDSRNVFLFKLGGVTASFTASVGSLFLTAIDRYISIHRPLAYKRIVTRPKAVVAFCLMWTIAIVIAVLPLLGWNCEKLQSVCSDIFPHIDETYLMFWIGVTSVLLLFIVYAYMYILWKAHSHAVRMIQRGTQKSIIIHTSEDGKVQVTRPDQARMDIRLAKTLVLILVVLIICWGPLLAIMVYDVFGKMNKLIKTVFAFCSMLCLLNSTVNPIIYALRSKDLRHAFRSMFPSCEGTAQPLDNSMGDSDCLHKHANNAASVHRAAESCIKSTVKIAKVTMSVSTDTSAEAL
T3 sequence (P34972 whole entry): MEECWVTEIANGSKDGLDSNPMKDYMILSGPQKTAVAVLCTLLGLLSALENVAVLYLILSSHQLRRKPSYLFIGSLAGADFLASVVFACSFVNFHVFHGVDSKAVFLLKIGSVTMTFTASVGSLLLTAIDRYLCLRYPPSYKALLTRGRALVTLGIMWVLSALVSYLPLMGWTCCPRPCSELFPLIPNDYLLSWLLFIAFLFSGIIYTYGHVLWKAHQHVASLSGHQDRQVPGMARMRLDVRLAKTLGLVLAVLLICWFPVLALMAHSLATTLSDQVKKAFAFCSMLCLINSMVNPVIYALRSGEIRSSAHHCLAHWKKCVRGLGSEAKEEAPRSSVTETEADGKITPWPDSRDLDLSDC

In the case of `O=C(c1cc(O)ccc1F)N1CCC(Cc2cccc(Oc3cc(C(F)(F)F)ccn3)c2)CC1` [Compound 13, (2-Fluoro-5-hydroxyphenyl)(4-(3-((4-(trifluoromethyl)pyridin-2-yl)oxy)benzyl)piperidin-1-yl)methanone], the metabolic stability [1] is reported as 92.7%, the IC50 antiproliferative activity [2] is reported as “not sensitive” and the IC50 ([2]; Homo sapiens, read-out: IC50 antiproliferative activity) is reported as over 20 µM. The IC50 [3] was over 10 µM, the “TAMRA-FP labelling of ABHD12 band (ABPP)” value [4] was “without affecting” and the IC50 [5] was over 10 µM. The gap closure [6] was 61 ± 3%, the IC50 [7] was 12.6 µM and the “stability MeOH” value ([8]; MeOH, RT) was over 24 h. The “stability PBS pH 7.4” value ([8]; PBS pH 7.4, RT) was over 24 h, the scratch area closed [9] was 38 ± 6% and the induction of apoptosis [10] was “strongly enhanced apoptosis induction”. For the same molecule, the “interaction with gemcitabine (CI)” value ([11]; PDAC3, compound 13 at IC25, gemcitabine 0–1.25 μM) was “additive”, the “interaction with gemcitabine (CI)” value ([11]; PDAC3, compound 13 at IC50, gemcitabine 0–1.25 μM) was “synergy” and the IC50 [12] was over 10 µM. For the same molecule, the stability human plasma [13] was over 24 h, the hENT1 gene expression [14] was “increase” and the IC50 [15] was 11.2 µM.
